Each structure is given as a SMILES string. pIC50: −log10 of the molar value.

In ChEMBL document CHEMBL1932957, “Synthesis of 2H-benzo[b][1,4]oxazin-3(4H)-one derivatives as platelet aggregation inhibitors” (Bioorg Med Chem Lett, 2012) one finds IC50 data, which are given here for nine compounds.

A short description of this assay: Antiplatelet activity in rabbit platelet rich plasma assessed as inhibition of ADP-induced platelet aggregation treated for 5 mins before ADP challenge measured for 6 mins by microplate reader. The class given is functional, cell-free. To be noted: Oryctolagus cuniculus.

With `CCCN1C(=O)COc2cc(CNc3ccccc3)ccc21`, the pIC50 was 4.99.

As for `CCCCN1C(=O)COc2cc(CNc3ccccc3)ccc21`, the pIC50 is 4.82.

Regarding `CCCN1C(=O)COc2cc(CNc3ccccc3C)ccc21`, the pIC50 was 4.73.

In the case of `CCCCN1C(=O)COc2cc(CNc3ccccc3C)ccc21`, the pIC50 was 4.73.

Consider `CCCN1C(=O)COc2cc(CNc3cccc(C)c3)ccc21`, for which the pIC50 was 4.86.

For `CCCCN1C(=O)COc2cc(CNc3cccc(C)c3)ccc21`, the pIC50 was 4.90.

`CCCN1C(=O)COc2cc(CNc3ccc(C)cc3)ccc21`: the pIC50 is 4.85.

For the compound `CC(=O)Oc1ccccc1C(=O)O` [ASPIRIN], the pIC50 was 5.22.

As to `Clc1ccccc1CN1CCc2sccc2C1` [TICLOPIDINE], the pIC50 was 5.50.
